The source of these data is ChEMBL document CHEMBL3832551, “DailyMed|setid=dd39c559-5c5d-4d3b-9228-c44085e1699f | FELODIPINE - felodipine tablet, film coated, extended release|Aurobindo Pharma Limited”.

Broadly, the Cmax is the highest concentration seen after dosing. A word on the Tmax: it is the time from dosing to the highest level. A word on the bioavailability: it is the share of a dose that reaches the circulation, judged against a reference dose that is usually intravenous. Higher therefore signals much systemic uptake.

Structures are written as SMILES.

Common to all, as to format: ADME, organism-based
The subject of series [1] is Homo sapiens. The experiment in a line: (§1) Evaluation of pharmacokinetic parameters for Felodipine following multiple oral administration of Felodipine immediate-release tablets. Conditions: in vivo, dose 10 mg, dosed compound id 10, dosed compound name FELODIPINE, gender male and female, regimen Once daily, route oral, tissue Plasma. Details: dose 10 mg, route oral.
Series [2] in a line: as §1. Conditions: human, in vivo, 10 mg, dosed compound id 10, dosed compound name FELODIPINE, gender male and female, regimen Once daily, tissue Plasma. Details: dose 10 mg, route oral.
Series [3] deals with Homo sapiens. The experiment in a line: (§2) Evaluation of pharmacokinetic parameters for Felodipine following single oral administration of Felodipine immediate or extended-release tablets. Also noted: dose 10 mg, dose 20 mg, route oral. Particulars: in vivo, po, dosed compound id 10, dosed compound name FELODIPINE, regimen Single dose, tissue Plasma.
A short description of series [4]: as §2. Also noted: dose 10 mg, dose 20 mg, route oral. Conditions: human, in vivo; dosed compound id 10, dosed compound name FELODIPINE, regimen Single dose, route oral, tissue Plasma.

As to `CCOC(=O)C1=C(C)NC(C)=C(C(=O)OC)C1c1cccc(Cl)c1Cl` (stereo not drawn) [FELODIPINE], the Cmin ss came out at 0.5 nM in the series with Homo sapiens [1]; 2 nM with Homo sapiens [3] (dose 10 mg, gender young male and female); 7 nM with Homo sapiens [3] (dose 20 mg, gender male and female). Moreover, the Cmax in series [2] is 20 nM; in the series on Homo sapiens [3] (gender male and female) it was 23 nM; in the series on Homo sapiens [3] (gender young male and female), 7 nM. Besides, the Tmax in series [4] was 2.5 to 5 h. In series [4], this molecule registered a bioavailability of 5%.
